Consider 20 molecules from patent US8871463B2, “Method for screening a glutamate release inhibitor in an astrocyte” (Korea Institute of Science and Technology, priority 2012, dated 2014).

“Also recorded” adds a separate entry of the source. Where two headings read alike, the source gives them in different places.

Experiment [1] deals with primary cultured astrocyte. In kind it is cell-based, mouse.
A further experiment addresses GluR1-L497Y (Homo sapiens, UniProt P42261, L497Y). In kind it is cell-based.
Experiment [2] has as its system astrocyte. Briefly: Fura-2 Ca2+ imaging of astrocyte during sniffer patch. The settings on record: for TFLLR-induced astrocytic Ca2+ transient: TFLLR 500 μM, 100 ms. In kind it is cell-based, mouse. As to the method: On the day of sniffer-patch, cultured astrocytes (HEK cells added) were incubated with 5 μM Fura-2 AM (mixed with 5 μl of 20% Pluronic acid) (Invitrogen) for 40 min and washed at room temperature, and subsequently transferred to a microscope stage for imaging. External solution contained (in mM): 150 NaCl, 10 Hepes, 3 KCl, 2 CaCl2, 2 MgCl2, 5.5 glucose, pH adjusted to pH 7.3 and osmolarity to 325 mOsmol kg^−1. Intensity images of 510 nm wavelength were taken at 340 nm and 380 nm excitation wavelengths using either iXon EMCCD (DV887 DCS-BV, ANDOR technology). Two resulting images were used for ratio calculations in Axon Imaging Workbench version 6.2 (Axon Instruments). GluR1LY-mediated currents were recorded from HEK cells expressing GluR1L497Y under voltage clamp (Vh=−70 mV) using Multiclamp 700B amplifier (Molecular Devices), acquired with pClamp 9.2. Recording electrodes […] were filled with (mM): 110 Cs-Gluconate, 30 CsCl, 0.5 CaCl2, 10 Hepes, 4 Mg-ATP, 0.3 Na3-GTP and 10 BAPTA (pH adjusted to 7.3 with CsOH and osmolarity adjusted to 290-310 mOsm/kg with sucrose). For simultaneous recording, Imaging Workbench was synchronized with pClamp 9.2.

Experiment [3] concerns astrocyte. In kind it is cell-based, mouse.

Sequence of GluR1-L497Y (P42261 19-906 L497Y limits assumed): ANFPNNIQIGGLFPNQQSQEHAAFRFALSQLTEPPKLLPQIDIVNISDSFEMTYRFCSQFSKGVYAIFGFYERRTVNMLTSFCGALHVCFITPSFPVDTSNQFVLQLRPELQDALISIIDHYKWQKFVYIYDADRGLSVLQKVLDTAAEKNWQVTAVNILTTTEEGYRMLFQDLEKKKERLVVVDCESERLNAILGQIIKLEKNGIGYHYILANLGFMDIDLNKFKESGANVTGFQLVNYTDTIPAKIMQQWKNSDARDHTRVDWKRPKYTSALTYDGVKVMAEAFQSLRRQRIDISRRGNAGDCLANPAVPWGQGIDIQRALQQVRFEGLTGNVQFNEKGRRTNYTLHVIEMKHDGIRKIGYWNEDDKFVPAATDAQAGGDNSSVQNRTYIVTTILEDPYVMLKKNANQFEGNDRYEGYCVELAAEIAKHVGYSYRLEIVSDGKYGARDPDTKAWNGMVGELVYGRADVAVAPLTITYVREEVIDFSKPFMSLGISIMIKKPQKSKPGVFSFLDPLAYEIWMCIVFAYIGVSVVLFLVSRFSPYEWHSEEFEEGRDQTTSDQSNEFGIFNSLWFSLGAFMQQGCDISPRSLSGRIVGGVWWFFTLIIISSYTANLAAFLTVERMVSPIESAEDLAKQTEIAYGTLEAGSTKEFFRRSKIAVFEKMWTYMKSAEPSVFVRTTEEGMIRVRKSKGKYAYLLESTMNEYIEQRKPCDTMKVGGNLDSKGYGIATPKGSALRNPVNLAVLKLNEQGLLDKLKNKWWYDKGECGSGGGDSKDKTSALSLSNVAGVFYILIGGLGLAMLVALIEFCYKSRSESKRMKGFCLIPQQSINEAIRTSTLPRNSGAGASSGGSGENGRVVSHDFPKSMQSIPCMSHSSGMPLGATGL

For `C=C[C@H]1C[N@@]2CC[C@H]1C[C@H]2[C@H](O)c1ccnc2ccc(OC)cc12` [quinine], the “fast and slow-modes of TFLLR-induced glutamate release (TFLLR-induced GluR1L497Y-mediated current)” value (shortened to “fast and slow-modes”) in experiment [1] is “inhibit; also recorded: blocked”.

`O=C(O)c1cccnc1Nc1cccc(C(F)(F)F)c1` [NFA, Niflumic acid]: the “1 mM glutamate-induced GluR1L497Y-mediated current of sensor cell” value on GluR1-L497Y is given as “does not affect”. Besides, in experiment [1], the “fast and slow-modes” value is listed as “inhibit; also recorded: blocked”.

On to “C-terminus of Phosducin: C-terminus of mouse phosducin (251-278 a.a., SEQ ID NO: 6), over-expressed; inhibits Gαi-Gβγ dissociation”, for which the “TFLLR-induced astrocytic Ca2+ transient” value in the experiment on astrocyte [2] was “without affecting”; in the experiment on astrocyte [2] (listed as Phosducin C-terminal fragment), “do not inhibit”. The “fast-mode of TFLLR-induced glutamate release” value in experiment [1] is “almost completely inhibited; also recorded: inhibition of the fast-mode”.

Take `CC1(C)[C@@H](OC(=O)CCC(=O)O)CC[C@]2(C)[C@H]3C(=O)C=C4[C@@H]5C[C@@](C)(C(=O)O)CC[C@]5(C)CC[C@@]4(C)[C@]3(C)CC[C@@H]12` [CBX, Carbenoxolone]: the “fast and slow-modes” value in experiment [1] was “does not inhibit; also recorded: did not show any significant effect”.

For `NCC(CC(=O)O)c1ccc(Cl)cc1` (centres unmarked) [Baclofen], the “astrocytic Ca2+ increase induced by the agent itself” value (shortened to “astrocytic Ca2+ increase induced”) in the experiment on astrocyte [2] (pressure-applied 100 ms) is recorded as “without a Ca^2+ transient”; in the experiment on astrocyte [2] (pressure-applied 100 ms, listed as baclofen), “without a measurable Ca^2+ increase”. The “fast-mode of glutamate release induced by the agent itself” value (from here on “fast-mode of glutamate release induced”) in the experiment on astrocyte [3] is listed as “activated a fast-mode; also recorded: induces fast-mode”. Further, in the experiment on astrocyte [3], the “slow-mode of glutamate release induced by the agent itself” value (shortened to “slow-mode of glutamate release induced”) was “without a measurable Ca^2+ increase or a slow-mode”.

On to `[Cs+]` [Cs^+], for which the “fast and slow-modes” value in experiment [1] is “did not show any significant effect”.

Consider `OC[C@H]1O[C@@H](n2cnc3c(NC4CCCC4)nc(Cl)nc32)[C@H](O)[C@@H]1O` [CCPA, 2-chloro-N(6)-cyclopentyladenosine], for which the “astrocytic Ca2+ increase induced” value with astrocyte [2] (pressure-applied 100 ms) is listed as “does not induce; also recorded: without a measurable Ca^2+ increase”. Besides, in the experiment on astrocyte [3], the “fast-mode of glutamate release induced” value is on record as “induces mainly fast GluR1-mediated inward current; also recorded: activated a fast-mode; also recorded: induce fast-mode” and the “slow-mode of glutamate release induced” value is on record as “without a measurable Ca^2+ increase or a slow-mode”.

In the case of `CC[N+](CC)(CC)CC` [TEA], the “fast and slow-modes” value in experiment [1] was “did not show any significant effect”.

For the molecule `N#Cc1cc2c(cc1[N+](=O)[O-])=NC(=O)C(=O)N=2` [CNQX, 6-cyano-7-nitroquinoxaline-2,3-dione], in experiment [1], the “fast and slow-modes” value is given as “blocked”; the “fast-mode of TFLLR-induced glutamate release” value was “blocked”; the “slow-mode of TFLLR-induced glutamate release” value was “blocked”.

Turning to `CC(=O)OCOC(=O)CN(CC(=O)OCOC(C)=O)c1ccccc1OCCOc1ccccc1N(CC(=O)OCOC(C)=O)CC(=O)OCOC(C)=O` [BAPTA-AM, 1,2-bis-(o-inophenoxy)ethane-N,N,N′,N′-tetraacetic Acid Tetra-(acetoxymethyl) Ester], the “TFLLR-induced astrocytic Ca2+ transient” value in the experiment on astrocyte [2] is “completely block; also recorded: eliminated”. For the same molecule, the “slow-mode of TFLLR-induced glutamate release” value in experiment [1] is recorded as “significantly reduced”.

Regarding `O=S(=O)(O)c1cc(N=C=S)ccc1C=Cc1ccc(N=C=S)cc1S(=O)(=O)O` [DIDS, 4,4′-Diisothiocyano-2,2′-stilbenedisulfonic acid], the “fast and slow-modes” value in experiment [1] was “inhibit; also recorded: blocked”.

For the molecule “β-ARK-c term: C-terminus of Beta-adrenergic receptor kinase (SEQ ID NO: 5), over-expressed; inhibits Gβγ dissociation (WKKELRDAYREAQQLVQRVPKMKNKPRSVQRVPKMKNKPRS; B-Ark(Beta-adrenergic receptor kinase) C-terminus)”, the “TFLLR-induced astrocytic Ca2+ transient” value with astrocyte [2] is listed as “do not inhibit”; in the experiment on astrocyte [2] (listed as […]-ARK), “without affecting”.

As to `C/C=C/[C@H]1O[C@@](O)([C@@H](C)[C@H](O)[C@H](C)[C@H]2OC(=O)/C(OC)=C/C(C)=C/[C@@H](C)[C@@H](O)[C@@H](CC)[C@@H](O)[C@H](C)C/C(C)=C/C=C/[C@@H]2OC)C[C@@H](O[C@H]2C[C@@H](O)[C@H](OC(N)=O)[C@@H](C)O2)[C@@H]1C` [Concanamycin A], at GluR1-L497Y, the “1 mM glutamate-induced GluR1L497Y-mediated current of sensor cell” value is given as “reduced” and the “surface expression of GluR1-L497Y in the sensor cell” value is listed as “almost completely eliminated”. Besides, the “fast and slow-modes” value in experiment [1] was “appeared to block”.

Turning to `[Ba+2]` [Ba^2+], in experiment [1], the “fast and slow-modes” value is given as “did not show any significant effect”.

As for `CCCCC/C=C\C/C=C\C/C=C\C/C=C\CCCC(=O)NCCCl` [ACEA, N-(2-Chloroethyl)-5Z,8Z,11Z,14Z-eicosatetraenamide], the “astrocytic Ca2+ increase induced” value in the experiment on astrocyte [2] is “without a measurable Ca^2+ increase”. In addition, in the experiment on astrocyte [3], the “fast-mode of glutamate release induced” value is recorded as “induces mainly fast-mode; also recorded: activated a fast-mode; also recorded: induce fast-mode” and the “slow-mode of glutamate release induced” value is given as “without a measurable Ca^2+ increase or a slow-mode”.

As to TFLLR-NH2, on GluR1-L497Y, the “GluR1-mediated current induced in sensor HEK cell without astrocyte” value is listed as “does not induce”. Moreover, the “time from TFLLR to Ca2+ peak” value in the experiment on astrocyte [2] (n=31) stood at 10.8 ± 0.7 s. The “time from TFLLR to slow peak” value in experiment [1] (n=31) turned out to be 32.8 ± 2.6 s.

With `O=C(O)c1cc([N+](=O)[O-])ccc1NCCCc1ccccc1` [NPPB, 5-Nitro-2-(3-phenylpropylamino)benzoic Acid], the “fast and slow-modes” value in experiment [1] was “blocked”.

On to `CCCCC1(C2CCCC2)Cc2cc(OCCCC(=O)O)c(Cl)c(Cl)c2C1=O` (centres unmarked) [DCPIB, 4-(2-butyl-6,7-dichloro-2-cyclopentylindan-1-on-5-yl)oxybutyric acid], for which the “fast and slow-modes” value in experiment [1] was “did not show any significant effect”.

With `CC(C)Cn1c(=O)n(C)c(=O)c2[nH]cnc21` [IBMX, 3-isobutyl-1-methylxanthine], the “fast-mode of TFLLR-induced glutamate release” value in experiment [1] is reported as “does not affect”.

B1: RGS-2: Regulatory G protein signaling 2, over-expressed; selectively inhibits the Gq subunit (protein, UniProt P41220 1-211, looked up)
Regulator of G-protein …: MQSAMFLAVQHDCRPMDKSAGSGHKSEEKREKMKRTLLKDWKTRLSYFLQNSSTPGKPKTGKKSKQQAFIKPSPEEAQLWSEAFDELLASKYGLAAFRAFLKSEFCEENIEFWLACEDFKKTKSPQKLSSKARKIYTDFIEKEAPKEINIDFQTKTLIAQNIQEATSGCFTTAQKRVYSLMENNSYPRFLESEFYQDLCKKPQITTEPHAT
In the case of B1, the “TFLLR-induced astrocytic Ca2+ transient” value in the experiment on astrocyte [2] was “greatly and significantly reduced; also recorded: selectively and significantly inhibited”.
